The NIST ThermoML archive (doi:10.1016/j.jct.2015.11.005)
Numbers after ± are expanded uncertainties.

Details: Crystal; visual observation

SMILES: COc1ccc2[nH]c([S+]([O-])Cc3ncc(C)c(OC)c3C)nc2c1 (stereo unspecified) [Omeprazole]
- Normal melting temperature: 156.00 ± 2.1 °C
